This is an account of results in patent US20140088178A1, “COMBINATION OF ANTI-CLUSTERIN OLIGONUCLEOTIDE WITH ANDROGEN RECEPTOR ANTAGONIST FOR THE TREATMENT OF PROSTATE CANCER” (THE UNIVERSITY OF BRITISH COLUMBIA, priority 2011, published 2014).

e = 2'-O-(2-methoxyethyl) (MOE); d = 2'-deoxy (DNA)

Series [1] concerns LNCaP cells. Description: Flow cytometry of apoptotic sub-G1 fraction (propidium iodide staining). The format is cell-based, human. The note with it: 500 nmol/L custirsen or ScrB, 10 μmol/L AR1, 48 hrs. The protocol:
After a time course exposure, cell growth was measured by crystal violet assay as previously described (cleave et al., 2005). Detection and quantitation of apoptotic cell cycle population were analyzed by flow-cytometry (Beckman Coulter Epics Elite; Beckman, Inc.) based on 2N and 4N DNA content as previously described (Lamoureux et al., 2011). For CSS condition, LNCaP cells were plated in RPMI with 5% FBS switched to CSS at the next day, and treatment was started same as FBS condition. Each assay was done in triplicate three times.
Combination treatment enhances LNCaP apoptosis in flow cytometry analysis. […] The proportion of cells in sub-G0, G0-G1, S, G2-M is determined by propidium iodide staining. […] P value represents between treatment arms and their respective controls *p<0.05, **p<0.01, ***p<0.001 (Wilcoxon matched-pairs test).

Series [2] relates to CRPC LNCaP xenografts. Description: Castration-resistant LNCaP xenograft in castrated male athymic nude mice. The note with it: week 16 from start of treatment; euthanasia for tumour volume exceeding 10% of body weight. The format is in vivo. Here is the method:
The effects of combination treatment on castration-resistant LNCaP tumor growth were assessed in castrated male athymic nude mice. Male athymic nude mice were inoculated with LNCaP cells in Matrigel in two sites of mouse flank lesion. […]. Custirsen (10 mg/kg/each dose) or SCRB (10 mg/kg/each dose) was injected i.p. once daily for the first week and then three times per week. […] Tumor volume was measured once per week. Serum PSA was determined weekly. PSA doubling time (PSAdt) and velocity were calculated by the log-slope method (PSAt−PSAinitial×e^mt). All animal procedures were performed according to the guidelines of the Canadian Council on Animal Care and appropriate institutional certification.
Male athymic mice (Harlan Sprague-Dawley, Inc.) were injected s.c. with 1×10^6 LNCaP cells. When tumors grow in 150 mm^3 and serum PSA was >50 ng/ml, mice are castrated. […] Each experimental group consisted of 13 mice. […] Tumor volume and serum PSA was measured as previously described (Sowery et al., 2008). All animal procedures were performed according to the guidelines of the Canadian Council on Animal Care. Each three mice xenografts were sacrificed at 7 days after start treatment and the rest were harvested the end of the study and snap-frozen in liquid nitrogen. […]

For series [3], the system named is Akt and p90Rsk phosphorylation. In words: Western blot of Akt and p90Rsk phosphorylation. Conditions: FIG. 42B. The series is classed as cell-based, human. The protocol: YB-1 binds to CLU promoter leading to increased CLU expression after ER stress (Shiota et al., 2011). […]. Western blot analysis is done using phospho Akt, phospho ERK, Akt and ERK antibodies. […]. […] After 48 h treatment, western blot analysis is done using phospho Akt, phospho ERK, phospho mTOR, phospho P70S6K, Akt, ERK, mTOR and P70S6K antibodies.
In general terms: A western blot detects proteins with antibodies after separation by electrophoresis.

The test system of series [4] is LNCaP cells. Description: Autophagy induction. The series is classed as cell-based, human.
The conditions of series [5]: humans; cited from earlier work.
The subject of series [6] is GRP78, ATF4, IRE1, CHOP and cleaved-ATF6. Description: ER stress marker expression after AR1. The series is classed as cell-based. Conditions: concomitant with CLU induction. An excerpt: ER stress activates a complex intracellular signaling pathway, called the unfolded protein response (UPR), which is tailored to re-establish protein homeostasis (proteostasis) by inhibiting protein translation and promoting ER-associated protein degradation via the ubiquitin-proteasome system (UPS).

Series [7] concerns clusterin (CLU). Description: Western blot of clusterin (CLU) expression after AR pathway inhibition. The format is cell-based, human. The protocol: The immune complexes were recovered with protein-G sepharose for 2 h and then washed with radioimmunoprecipitation assay buffer (RIPA) at least thrice, centrifuged, and submitted to SDS-PAGE, followed by Western blotting. […] Cells are harvested and performed for western blot analysis.

The subject of series [8] is CRPC. The note with it: combined with docetaxel chemotherapy; cited from earlier work.
The target of series [9] is T1, AR (Homo sapiens, UniProt P10275, T878A).
T1 sequence (P10275 1-920 T878A): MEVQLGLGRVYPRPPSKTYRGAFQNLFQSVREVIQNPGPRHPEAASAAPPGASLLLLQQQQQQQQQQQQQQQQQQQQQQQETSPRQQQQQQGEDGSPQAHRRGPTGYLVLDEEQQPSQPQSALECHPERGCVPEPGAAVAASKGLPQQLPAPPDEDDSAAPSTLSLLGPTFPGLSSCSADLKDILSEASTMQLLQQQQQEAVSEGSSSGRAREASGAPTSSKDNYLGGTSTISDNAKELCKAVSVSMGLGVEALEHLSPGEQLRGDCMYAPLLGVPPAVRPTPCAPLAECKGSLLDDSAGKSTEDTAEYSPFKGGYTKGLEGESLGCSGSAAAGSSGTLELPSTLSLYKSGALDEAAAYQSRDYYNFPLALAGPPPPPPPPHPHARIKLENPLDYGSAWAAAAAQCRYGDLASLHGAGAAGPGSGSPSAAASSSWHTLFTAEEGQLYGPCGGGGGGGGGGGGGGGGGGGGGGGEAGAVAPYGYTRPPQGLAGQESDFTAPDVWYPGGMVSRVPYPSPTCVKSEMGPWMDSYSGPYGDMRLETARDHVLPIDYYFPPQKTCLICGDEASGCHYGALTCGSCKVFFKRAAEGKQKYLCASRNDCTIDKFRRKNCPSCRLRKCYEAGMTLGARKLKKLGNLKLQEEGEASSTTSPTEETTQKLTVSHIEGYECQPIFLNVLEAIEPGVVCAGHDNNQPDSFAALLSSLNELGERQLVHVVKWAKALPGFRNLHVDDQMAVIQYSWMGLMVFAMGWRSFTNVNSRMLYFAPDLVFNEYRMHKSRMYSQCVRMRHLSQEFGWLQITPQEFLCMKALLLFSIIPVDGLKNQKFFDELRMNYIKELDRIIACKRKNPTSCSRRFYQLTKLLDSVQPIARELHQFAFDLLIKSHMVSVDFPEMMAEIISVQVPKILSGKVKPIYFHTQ
Description: Western blot of AR protein expression. Conditions: FIG. 17: LNCaP, 500 nM custirsen 48 h, then 10 μM AR1 48 hours.
Description: Cells (1×10^6) were seeded in 10 cm dishes with RPMI medium containing 5% FBS. The next day, cells were transfected with 500 nM custirsen or control for 48 h.
AR expression is detected by western blot. […] “OTR” means cells treated with oligofectamime only.

In series [10] the test system is AR transcriptional activity. In words: PSA-luciferase reporter assay of R1881 induced AR transcriptional activity. The series is classed as cell-based, human. The note with it: LNCaP cells; 500 nmol/L custirsen, 10 μmol/L AR1, 1 nmol/L R1881. (In general: A reporter such as luciferase makes a cellular process visible.)
Description: Effect of combination treatment on AR transactivation and translocation. […] Cells were harvested, and luciferase activity was determined. Columns represent means of at least three independent experiments done in triplicate. PSA activation was normalized Renilla-luciferase activity.
LNCaP cells were seeded at a density of 5×10^4 in 12-well plates and transfected the following day with custirsen or SCRB. […] Reporter assays were normalized to Renilla and luciferase activity expressed by Firefly to Renilla ratio in arbitrary light units. All experiments were carried out in triplicate wells and repeated five times using different preparations of plasmids.
The effects of combination treatment on androgen-induced, AR-mediated gene activation were evaluated.

With “ScrB: scrambled antisense oligonucleotide control, 5′-CAGCGCTGACAACAGTTTCAT-3′ (SEQ ID NO: 44) (2'-O-methoxyethyl modified control oligonucleotide, pattern not given here, further chemistry not given here)”, the “apoptosis (sub-G1 fraction)” value in [1] is 15.2%.

Regarding `CNC(=O)c1ccc(N2C(=S)N(c3ccc(C#N)c(C(F)(F)F)c3)C(=O)C2(C)C)cc1F` [AR1, 4-(3-(4-cyano-3-(trifluoromethyl)phenyl)-5,5-dimethyl-4-oxo-2-thioxoimidazolidin-1-yl)-2-fluoro-N-methylbenzamide], in [2], the overall survival entry is on record as “about 40%”. Besides, the “Akt and p90Rsk phosphorylation” value in series [3] is listed as “increases”. In addition, in series [4], the autophagy result was “induces autophagy”. For the same compound, in series [5], the maximum tolerated dose is reported as 240 mg/day and the side effects result was “fatigue”. Further, in series [6], the ER stress markers result is on record as “up-regulation”. For the same compound, the clusterin protein expression result in series [7] (LNCaP, 10 μmol/L for 48 hrs, 5% FBS or 5% CSS, western blot) was “strongly increases”.

In the case of “custirsen: antisense oligonucleotide reducing clusterin expression, CAGCAGCAGAGTCTTCATCAT (Seq. ID No.: 3), phosphorothioate backbone, 2′-O-methoxyethyl at nucleotides 1-4 and 18-21 (sugars from the 5' end e4 d13 e4, all phosphorothioate, methylation of C not given here; listed as Homo sapiens)”, the “apoptosis (sub-G1 fraction)” value in series [1] is 20%. Moreover, in series [8], the HR is given as 0.50, the “gain in overall survival” value is reported as 7 month and the reduced death rate is given as 50%. In addition, the “reduction of AR protein expression” value in [9] is reported as “no effect”. Besides, in series [10], the “reduction of R1881 induced AR transcriptional activity (PSA luciferase transactivation)” value came out at 90%.

With `CC(=O)O[C@@H]1[C@@H](OC(C)=O)[C@@H](O)[C@H](Oc2c(-c3ccc(O)cc3)oc3cc(O)cc(O)c3c2=O)O[C@H]1C` [SL101], the “effect on AR1 induced up-regulation of CLU” value in series [7] (inhibitor added with AR1) is on record as “abrogates”.
